In patent US8658791B2, “2-substituted-6-amino-5-alkyl, alkenyl or alkynyl-4-pyrimidinecarboxylic acids and 6-substituted-4-amino-3-alkyl, alkenyl or alkynyl picolinic acids and their use as herbicides” (Dow AgroSciences, LLC, priority 2007, dated 2014) one finds pest or weed control and plant injury data, which are given here for eight compounds.

Format in all cases: in vivo
The test system of test [1] is velvetleaf (Abutilon theophrasti). As to the kind of experiment: General postemergence herbicidal activity, ABUTH. Particulars: Abutilon theophrasti, post-emergence, 336 h, postemergence spray, visual score after 14 days, 0 = no injury, 100 = complete kill, read-out: Post-emergent Weed Control ABUTH; for pest or weed control at 140 g/ha: 140 g ai/ha; for pest or weed control at 280 g/ha: 280 g ai/ha. The protocol: (§1) Seeds or nutlets of the desired test plant species were planted in Sun Gro MetroMix® 306 planting mixture, which typically has a pH of 6.0 to 6.8 and an organic matter content of about 30 percent, in plastic pots with a surface area of 103 square centimeters. When required to ensure good germination and healthy plants, a fungicide treatment and/or other chemical or physical treatment was applied. The plants were grown for 7-21 days in a greenhouse with an approximate 15 hour photoperiod which was maintained at about 23-29° C. during the day and 22-28° C. during the night. Nutrients and water were added on a regular basis and supplemental lighting was provided with overhead metal halide 1000-Watt lamps as necessary. The plants were employed for testing when they reached the first or second true leaf stage.
(§2) A weighed amount, determined by the highest rate to be tested, of each test compound was placed in a 25 mL glass vial and was dissolved in 4 mL of a 97:3 v/v (volume/volume) mixture of acetone and dimethyl sulfoxide (DMSO) to obtain concentrated stock solutions. […] The concentrated stock solutions obtained were diluted with 20 mL of an aqueous mixture containing acetone, water, isopropyl alcohol, DMSO, Atplus 411F crop oil concentrate, and Triton® X-155 surfactant in a 48.5:39:10:1.5:1.0:0.02 v/v ratio to obtain spray solutions containing the highest application rates. Additional application rates were obtained by serial dilution of 12 mL of the high rate solution into a solution containing 2 mL of 97:3 v/v (volume/volume) mixture of acetone and dimethyl sulfoxide (DMSO) and 10 mL of an aqueous mixture containing acetone, water, isopropyl alcohol, DMSO, Atplus 411F crop oil concentrate, and Triton X-155 surfactant in a 48.5:39:10:1.5:1.0:0.02 v/v ratio to obtain 1/2X, 1/4X, 1/8X and 1/16X rates of the high rate. Compound requirements are based upon a 12 mL application volume at a rate of 187 L/ha. Formulated compounds were applied to the plant material with an overhead Mandel track sprayer equipped with a 8002E nozzles calibrated to deliver 187 L/ha over an application area of 0.503 square meters at a spray height of 18 inches (43 cm) above the average plant canopy height. Control plants were sprayed in the same manner with the solvent blank.
(§3) The treated plants and control plants were placed in a greenhouse as described above and watered by sub-irrigation to prevent wash-off of the test compounds. After 14 days, the condition of the test plants as compared with that of the untreated plants was determined visually and scored on a scale of 0 to 100 percent where 0 corresponds to no injury and 100 corresponds to complete kill.

The test system of test [2] is lambsquarter (Chenopodium album). As to the kind of experiment: General postemergence herbicidal activity, CHEAL. Particulars: Chenopodium album, post-emergence, 336 h, postemergence spray, visual score after 14 days, 0 = no injury, 100 = complete kill, read-out: Post-emergent Weed Control CHEAL; for pest or weed control at 140 g/ha: 140 g ai/ha; for pest or weed control at 280 g/ha: 280 g ai/ha. The method, then: as §1, §2, §3

Test [3] deals with barnyardgrass (Echinochloa crus-galli). As to the kind of experiment: General postemergence herbicidal activity, ECHCG. Particulars: Echinochloa crus-galli, post-emergence, 336 h, postemergence spray, visual score after 14 days, 0 = no injury, 100 = complete kill, read-out: Post-emergent Weed Control ECHCG; for pest or weed control at 140 g/ha: 140 g ai/ha; for pest or weed control at 280 g/ha: 280 g ai/ha. The method, then: as §1, §2, §3

The subject of a further test is rice (Oryza sativa). As to the kind of experiment: General postemergence herbicidal activity, ORYSA. Particulars: Oryza sativa, post-emergence, 336 h, postemergence spray, visual score after 14 days, 0 = no injury, 100 = complete kill, read-out: Post-emergent Weed Control ORYSA; for plant injury at 140 g/ha: 140 g ai/ha; for plant injury at 280 g/ha: 280 g ai/ha. The method, then:
as §1, §2, §3

Test [4] concerns wild poinsettia (Euphorbia heterophylla). As to the kind of experiment: General postemergence herbicidal activity, EPHHL. Particulars: Euphorbia heterophylla, post-emergence, 336 h, postemergence spray, visual score after 14 days, 0 = no injury, 100 = complete kill, read-out: Post-emergent Weed Control EPHHL; for pest or weed control at 140 g/ha: 140 g ai/ha; for pest or weed control at 280 g/ha: 280 g ai/ha. The method, then: as §1, §2, §3

`C/C=C/c1c(N)nc(-c2ccc(Cl)c(OC)c2F)nc1C(=O)OC` [Compound 22, 6-Amino-2-(4-chloro-2-fluoro-3-methoxyphenyl)-5-((E)-propenyl)pyrimidine-4-carboxylic acid methyl ester]: the pest or weed control at 70 g/ha was determined as 85% in test [1] (70 g ai/ha), 95% in test [2] (70 g ai/ha), 95% in test [3] (70 g ai/ha) and 100% in test [4] (70 g ai/ha). The plant injury at 70 g/ha in the test on rice (Oryza sativa) (70 g ai/ha) stood at 0%.

For `C#Cc1c(N)nc(-c2ccc(Cl)c(OC)c2F)nc1C(=O)OC` [Compound 24, 6-Amino-2-(4-chloro-2-fluoro-3-methoxyphenyl)-5-ethynyl-pyrimidine-4-carboxylic acid methyl ester], the pest or weed control at 140 g/ha in test [1] was 80%; in test [2], 85%; in test [3], 70%; in test [4], 85%. In addition, the plant injury at 140 g/ha in the test on rice (Oryza sativa) is 0%.

Turning to `COC(=O)c1nc(-c2ccc(Cl)cc2)c(F)c(N)c1C` [Compound 25, 4-Amino-6-(4-chlorophenyl)-5-fluoro-3-methylpyridine-2-carboxylic acid methyl ester], the pest or weed control at 280 g/ha in test [1] was 70%; in test [2], 100%; in test [3], 0%; in test [4], 100%. For the same compound, the plant injury at 280 g/ha in the test with rice (Oryza sativa) worked out at 0%.

Turning to `C=Cc1c(C(=O)OC)nc(-c2ccc(Cl)cc2)c(F)c1N` [Compound 26, 4-Amino-6-(4-chlorophenyl)-5-fluoro-3-vinylpyridine-2-carboxylic acid methyl ester], the pest or weed control at 140 g/ha in test [1] came to 100%; in test [2], 100%; in test [3], 70%; in test [4], 90%. Moreover, the plant injury at 140 g/ha in the test on rice (Oryza sativa) came out at 0%.

As to `COC(=O)c1nc(-c2ccc(Cl)c(OC)c2F)cc(N)c1C` [Compound 27, 4-Amino-6-(4-chloro-2-fluoro-3-methoxyphenyl)-3-methyl-pyridine-2-carboxylic acid methyl ester], the pest or weed control at 280 g/ha in test [1] came out at 80%; in test [2] it was 30%; in test [3], 0%; in test [4] it was 100%. Further, the plant injury at 280 g/ha with rice (Oryza sativa) is 0%.

For the compound `C=Cc1c(N)cc(-c2ccc(Cl)cc2F)nc1C(=O)OC` [Compound 29, 4-Amino-6-(4-chloro-2-fluorophenyl)-3-vinylpyridine-2-carboxylic acid methyl ester], the pest or weed control at 280 g/ha in test [1] was determined as 85%; in test [2], 85%; in test [3], 0%; in test [4] it was 75%. For the same compound, the plant injury at 280 g/ha in the test on rice (Oryza sativa) was 10%.

`C=C(F)c1c(C(=O)OC)nc(-c2ccc(Cl)cc2)c(F)c1N` [Compound 30, 4-Amino-6-(4-chlorophenyl)-5-fluoro-3-(1-fluorovinyl)pyridine-2-carboxylic acid methyl ester]: the pest or weed control at 140 g/ha was 100% in test [1], 100% in test [2], 0% in test [3] and 90% in test [4]. The plant injury at 140 g/ha in the test on rice (Oryza sativa) was determined as 0%.

For the compound `C#Cc1c(N)cc(-c2ccc(Cl)c(OC)c2F)nc1C(=O)OC` [Compound 31, 4-Amino-6-(4-chloro-2-fluoro-3-methoxyphenyl)-3-ethynyl-pyridine-2-carboxylic acid methyl ester], the pest or weed control at 140 g/ha in test [1] turned out to be 95%; in test [2], 95%; in test [3] it was 80%; in test [4], 100%. Besides, the plant injury at 140 g/ha in the test with rice (Oryza sativa) worked out at 0%.
